From patent US20210128492A1, “COMPOSITION FOR PREVENTING AND/OR IMPROVING BRAIN DYSFUNCTION COMPRISING A LUTEIN OR SALT THEREOF AND A PLANT PRODUCT OF THE GENUS TRAPA” (Santen Pharmaceutical Co., Ltd., priority 2017, published 2021)

What was measured:
[1] = test system: pyramidal cell layer of the hippocampus CA1 region; experiment: Histopathological assessment of KB stained brain specimens from the mice of Test Example 1; assay type: in vivo, mouse
Experimental: The brain was isolated from the mice in each group of Test Example 1 to prepare histopathological specimens, and the histopathological assessment of the prepared histopathological specimens was performed. Such test was performed twice. Each mouse in each group of Test Example 1 was anesthetized with an isoflurane solution and the chest of the mouse was opened to expose the heart. The exposed heart was cut into the auricle thereof. A polypropylene disposable syringe with an injection needle was used, the injection needle thereof was inserted from left ventricle and about 30 mL of ice-cooled saline was injected into the heart, and then the heart was perfused with about 30 mL of 10 vol % formalin neutral buffer solution. […] The isolated brain was embedded in paraffin according to any conventional method, one histopathological section was discontinuously prepared at around bregma-1.70 mm and around bregma-2.80 mm, respectively, and then Klüver-Barrera stained (KB stained) tissue specimens were prepared from each section. The cut brain was stored in 10 vol % formalin neutral buffer solution. • 1) For each specimen, the images of pyramidal cell layers of the hippocampus CA1 region closest to bregma-1.70 mm and bregma-2.80 mm from the optical microscope image (George Paxinos and Keith B. J. Franklin. (2013). The Mouse Brain in stereotaxic coordinates.

[2] = test system: Slc:ddY (SPF) mice injected with β-amyloid solution; experiment: Y-maze test (spontaneous alternation test) in mice injected with β-amyloid solution; assay type: in vivo, mouse
Experimental: Slc:ddY (SPF:Specific-Pathogen-Free) mice (Supply Resource: Japan SLC, Inc.) received the administration a sample (Vehicle control, Trapa japonica extract, Lutein, or Trapa japonica extract+Lutein) and then the injection of β-amyloid solution. For the mice, Y-maze test was performed to evaluate the improvement effects of Trapa japonica extract, Lutein, and a combination thereof on learning disorder. The test was performed twice. The Y-maze test was performed according to Takayoshi MAMIYA et al., “Effects of Pre-Germinated Brown Rice on β-Amyloid Protein-Induced Learning and Memory Deficits in Mice”, Biol. Pharm. Bull., July 2004, 27(7), 1041-1045 to evaluate the effects.
Male, 5-week-old, Slc:ddY (SPF) mouse(Body weight: 23˜28 g: n=32)
According to the following procedure, model mice were made using the above mice: Each mouse was anesthetized with the intraperitoneal administration (dosing volume: 10 mL/kg) of pentobarbital sodium (TOKYO CHEMICAL INDUSTRY CO., LTD.) at 40 mg/kg. After anesthesia, levobupivacaine hydrochloride (POPSCAINE® 0.25% injection, Maruishi Pharmaceutical Co., Ltd.) (0.1 mL) was administered subcutaneously into the scalp of the mouse. The hair on the top of the mouse was trimmed, and the head part was fixed to a brain stereotactic device. The scalp of the mouse was sterilized with iodine tincture, and then the head part was incised to expose the skull and the connective tissue on the skull was removed with a cotton swab. The treated skull was dried with a blower to find the position of bregma more easily. A hole for inserting a stainless steel pipe was drilled in the skull at 1 mm to the right and 0.2 mm behind bregma with a dental drill. The stainless steel pipe connected to a silicon tube with an outside diameter of 0.5 mm and a micro syringe was perpendicularly inserted to a depth of 2.5 mm from the bone surface. 3 μL of a β-amyloid solution ([…]) was injected (in the sham operation group, 3 μL of water for injection was injected) into the cerebral ventricle with a microsyringe pump for 3 minutes. After the injection, the inserted stainless steel pipe was allowed to stand for 3 minutes, and then the pipe was slowly removed. After removing the stainless steel pipe, the cranial was closed with a non-absorbable myelostatic agent (NESTOP®, Alfresa Pharma Co., Ltd.) and the scalp was sutured. The mouse were removed from the brain stereotactic device and returned to the breeding cage.
The β-amyloid solution was prepared by dissolving β-amyloid (Amyloid-β Protein(25-35); Polypeptide Laboratories) to 2 mM with water for injection and incubating the solution in the constant temperature storage at 37° C. for 4 days. Water for injection was used as the vehicle for sham operation. […]

[3] = β-amyloid model mice, 14 days gavage
[4] = 8 minutes, about 1 hour after administration on the 14th day, gavage once per day for 14 days (Trapa japonica extract 2 mg/kg, Lutein 0.4 mg/kg, combination 2 + 0.4 mg/kg), β-amyloid on day 8, average of n=10

Question: For CC1=C[C@H](O)CC(C)(C)[C@H]1/C=C/C(C)=C/C=C/C(C)=C/C=C/C=C(C)/C=C/C=C(C)/C=C/C1=C(C)C[C@@H](O)CC1(C)C [Lutein, (3R,3′R,6′R)-β,ε-carotene-3,3′-diol], which “Area of pyramidal cell layer” value ([1]; hippocampus CA1 region, KB stained specimens, mice of Test Example 1 (gavage 14 days; Trapa japonica extract 2 mg/kg, Lutein 0.4 mg/kg, combination 2 + 0.4 mg/kg), average of n=2) is on record?
Answer: 224874 μm^2

Question: What about the “Area of pyramidal cell layer of the hippocampus CA1 region as compared to the vehicle control group (in words)” value [1, 3] of the same molecule?
Answer: increased

Question: What about the Spontaneous alternation rate [2, 4] of the same molecule?
Answer: 59.3%

Question: What about the “The number of spontaneous alternation” value [2, 4] of the same molecule?
Answer: 21.2 Count

Question: What about the “The total number of entries” value [2, 4] of the same molecule?
Answer: 37.0 Count

Question: What about the “Spontaneous alternation rate as compared to the vehicle control group (in words)” value [2, 3] of the same molecule?
Answer: not improved
